We go through 13 molecules from ChEMBL document CHEMBL3991601, “The target landscape of clinical kinase drugs” (Science, 2017).

The structures appear in SMILES notation. Counter-ions that a name gives are not always drawn. Active and inactive are the calls of the source. Cut-off read from the data, not from the text of the source, for most assays here: actives have a measured Kd and inactives only a lower limit.

The target of test [1] is Calcium/calmodulin-dependent protein kinase type II subunit delta (Homo sapiens, UniProt Q13557).
Calcium/calmodulin-dependent protein kinase type II subunit delta, sequence (Q13557 whole entry): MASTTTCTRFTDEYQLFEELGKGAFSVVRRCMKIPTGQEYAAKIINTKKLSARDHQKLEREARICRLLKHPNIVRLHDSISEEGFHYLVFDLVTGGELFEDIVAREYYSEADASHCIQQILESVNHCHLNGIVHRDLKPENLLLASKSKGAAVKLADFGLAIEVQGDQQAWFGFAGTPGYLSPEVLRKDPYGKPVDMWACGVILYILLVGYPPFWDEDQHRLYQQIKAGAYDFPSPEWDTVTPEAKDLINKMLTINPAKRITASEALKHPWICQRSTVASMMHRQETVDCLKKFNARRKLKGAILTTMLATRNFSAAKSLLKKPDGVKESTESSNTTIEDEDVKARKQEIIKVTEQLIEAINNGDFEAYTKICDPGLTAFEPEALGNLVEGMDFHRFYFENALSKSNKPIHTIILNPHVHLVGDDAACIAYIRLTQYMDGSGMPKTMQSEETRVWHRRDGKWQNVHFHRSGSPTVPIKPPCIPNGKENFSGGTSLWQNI
The next test addresses Ephrin type-A receptor 5 (Homo sapiens, UniProt P54756).
For test [2], the target named is Dual specificity protein kinase CLK1 (Homo sapiens, UniProt P49759).
Dual specificity protein kinase CLK1, sequence (P49759 whole entry): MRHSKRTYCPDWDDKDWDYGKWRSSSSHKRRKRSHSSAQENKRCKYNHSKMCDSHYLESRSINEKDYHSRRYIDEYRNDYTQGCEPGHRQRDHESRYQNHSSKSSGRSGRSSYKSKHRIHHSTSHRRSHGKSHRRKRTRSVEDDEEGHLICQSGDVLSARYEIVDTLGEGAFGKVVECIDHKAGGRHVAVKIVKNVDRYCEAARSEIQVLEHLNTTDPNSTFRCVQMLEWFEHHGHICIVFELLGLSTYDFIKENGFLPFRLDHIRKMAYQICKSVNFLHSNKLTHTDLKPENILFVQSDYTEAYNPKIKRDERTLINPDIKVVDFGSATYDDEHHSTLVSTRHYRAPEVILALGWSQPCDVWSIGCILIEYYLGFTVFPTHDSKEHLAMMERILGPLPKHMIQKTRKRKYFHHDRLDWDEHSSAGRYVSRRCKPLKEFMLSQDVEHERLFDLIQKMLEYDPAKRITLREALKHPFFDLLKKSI
For test [3], the target named is Tyrosine-protein kinase CSK (Homo sapiens, UniProt P41240).
Tyrosine-protein kinase CSK, sequence (P41240 whole entry): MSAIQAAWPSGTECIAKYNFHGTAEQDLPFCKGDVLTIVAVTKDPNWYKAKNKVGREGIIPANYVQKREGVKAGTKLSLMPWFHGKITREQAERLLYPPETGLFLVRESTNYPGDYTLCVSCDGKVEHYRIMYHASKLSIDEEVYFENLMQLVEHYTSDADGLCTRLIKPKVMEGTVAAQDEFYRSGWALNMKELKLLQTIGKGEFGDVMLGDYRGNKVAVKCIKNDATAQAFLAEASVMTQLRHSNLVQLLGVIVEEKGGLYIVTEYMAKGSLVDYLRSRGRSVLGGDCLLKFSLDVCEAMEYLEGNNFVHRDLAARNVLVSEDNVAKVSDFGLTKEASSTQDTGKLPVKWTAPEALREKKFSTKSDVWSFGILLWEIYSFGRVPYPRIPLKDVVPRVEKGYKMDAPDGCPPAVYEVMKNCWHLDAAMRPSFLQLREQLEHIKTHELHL
The target of test [4] is T1, ATP-dependent 6-phosphofructokinase, platelet type (Homo sapiens, UniProt Q01813).
T1 sequence (Q01813 whole entry): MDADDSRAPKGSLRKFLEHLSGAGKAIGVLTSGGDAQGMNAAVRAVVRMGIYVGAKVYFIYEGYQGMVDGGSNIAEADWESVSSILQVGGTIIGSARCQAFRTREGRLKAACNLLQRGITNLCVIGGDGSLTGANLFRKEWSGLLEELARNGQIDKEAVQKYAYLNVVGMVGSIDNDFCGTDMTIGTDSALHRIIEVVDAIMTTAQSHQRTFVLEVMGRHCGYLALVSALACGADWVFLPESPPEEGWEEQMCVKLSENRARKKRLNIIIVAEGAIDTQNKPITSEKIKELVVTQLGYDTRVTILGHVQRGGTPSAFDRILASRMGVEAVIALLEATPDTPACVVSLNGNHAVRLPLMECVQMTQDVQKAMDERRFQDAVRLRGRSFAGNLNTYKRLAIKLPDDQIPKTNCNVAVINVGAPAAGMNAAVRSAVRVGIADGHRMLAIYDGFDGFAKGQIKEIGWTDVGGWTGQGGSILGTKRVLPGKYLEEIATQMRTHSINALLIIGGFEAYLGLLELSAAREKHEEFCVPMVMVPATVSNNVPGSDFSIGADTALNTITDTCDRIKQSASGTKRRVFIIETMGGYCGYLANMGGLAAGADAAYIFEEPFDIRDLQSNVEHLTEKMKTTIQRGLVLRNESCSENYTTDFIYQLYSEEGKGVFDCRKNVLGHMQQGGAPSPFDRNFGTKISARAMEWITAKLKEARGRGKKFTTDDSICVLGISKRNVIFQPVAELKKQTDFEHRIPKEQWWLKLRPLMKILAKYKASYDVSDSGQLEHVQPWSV

Test [5] concerns the target T2, Peroxisomal acyl-coenzyme A oxidase 3 (Homo sapiens, UniProt O15254).
T2 sequence (O15254 whole entry): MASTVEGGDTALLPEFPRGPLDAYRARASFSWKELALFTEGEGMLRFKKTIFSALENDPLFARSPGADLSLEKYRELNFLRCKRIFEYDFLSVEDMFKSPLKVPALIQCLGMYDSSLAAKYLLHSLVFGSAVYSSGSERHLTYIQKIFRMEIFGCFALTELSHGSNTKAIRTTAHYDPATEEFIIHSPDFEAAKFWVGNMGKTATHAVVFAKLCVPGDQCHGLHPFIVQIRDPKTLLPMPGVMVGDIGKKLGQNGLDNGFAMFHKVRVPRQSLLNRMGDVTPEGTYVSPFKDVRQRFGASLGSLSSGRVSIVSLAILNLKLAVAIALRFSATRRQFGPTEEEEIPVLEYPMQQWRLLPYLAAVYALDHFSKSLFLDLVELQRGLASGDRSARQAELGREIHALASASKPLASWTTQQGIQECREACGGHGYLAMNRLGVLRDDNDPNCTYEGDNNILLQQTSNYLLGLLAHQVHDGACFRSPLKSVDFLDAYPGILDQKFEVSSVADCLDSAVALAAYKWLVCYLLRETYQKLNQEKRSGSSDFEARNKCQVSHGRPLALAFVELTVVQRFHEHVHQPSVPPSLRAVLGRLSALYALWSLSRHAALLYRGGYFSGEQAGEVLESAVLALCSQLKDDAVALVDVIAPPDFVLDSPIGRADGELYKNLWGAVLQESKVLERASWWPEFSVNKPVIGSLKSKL

The target of test [6] is T3, Breakpoint cluster region protein (Homo sapiens, UniProt P11274).
T3 sequence (P11274 whole entry): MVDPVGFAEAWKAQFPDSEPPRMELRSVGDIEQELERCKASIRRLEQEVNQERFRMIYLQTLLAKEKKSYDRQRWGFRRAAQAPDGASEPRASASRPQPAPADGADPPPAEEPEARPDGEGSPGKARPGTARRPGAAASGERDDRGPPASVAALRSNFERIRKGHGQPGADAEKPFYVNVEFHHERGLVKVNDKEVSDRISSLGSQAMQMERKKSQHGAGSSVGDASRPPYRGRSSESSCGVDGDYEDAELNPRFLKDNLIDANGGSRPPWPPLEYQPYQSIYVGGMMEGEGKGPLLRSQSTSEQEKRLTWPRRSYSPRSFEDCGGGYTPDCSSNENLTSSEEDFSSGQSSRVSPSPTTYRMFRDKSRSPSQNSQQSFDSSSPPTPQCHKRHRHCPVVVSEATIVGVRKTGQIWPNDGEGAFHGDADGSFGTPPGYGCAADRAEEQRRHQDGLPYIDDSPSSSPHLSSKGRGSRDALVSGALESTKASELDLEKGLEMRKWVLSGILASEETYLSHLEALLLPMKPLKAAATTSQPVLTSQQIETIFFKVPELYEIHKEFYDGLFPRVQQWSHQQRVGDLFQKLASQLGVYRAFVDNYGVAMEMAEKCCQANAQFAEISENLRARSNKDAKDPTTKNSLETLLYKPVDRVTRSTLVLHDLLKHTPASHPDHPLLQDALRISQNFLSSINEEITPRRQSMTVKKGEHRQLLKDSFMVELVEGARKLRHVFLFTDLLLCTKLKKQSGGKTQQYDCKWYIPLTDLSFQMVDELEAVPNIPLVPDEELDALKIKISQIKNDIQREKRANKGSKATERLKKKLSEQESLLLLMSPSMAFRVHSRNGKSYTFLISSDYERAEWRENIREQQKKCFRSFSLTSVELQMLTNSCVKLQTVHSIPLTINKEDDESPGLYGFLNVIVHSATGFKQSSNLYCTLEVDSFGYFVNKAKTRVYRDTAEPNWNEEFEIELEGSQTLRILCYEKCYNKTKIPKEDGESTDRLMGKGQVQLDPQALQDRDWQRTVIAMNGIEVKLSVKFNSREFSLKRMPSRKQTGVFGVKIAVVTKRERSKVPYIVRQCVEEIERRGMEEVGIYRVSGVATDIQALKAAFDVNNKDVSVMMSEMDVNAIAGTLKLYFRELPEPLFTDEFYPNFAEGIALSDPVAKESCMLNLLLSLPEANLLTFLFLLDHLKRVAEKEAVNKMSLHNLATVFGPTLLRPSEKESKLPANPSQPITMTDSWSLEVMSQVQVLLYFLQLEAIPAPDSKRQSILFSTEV
Note: in the data inactive means no Kd found up to 30 µM.

Ephrin type-A receptor 5, sequence (P54756 whole entry): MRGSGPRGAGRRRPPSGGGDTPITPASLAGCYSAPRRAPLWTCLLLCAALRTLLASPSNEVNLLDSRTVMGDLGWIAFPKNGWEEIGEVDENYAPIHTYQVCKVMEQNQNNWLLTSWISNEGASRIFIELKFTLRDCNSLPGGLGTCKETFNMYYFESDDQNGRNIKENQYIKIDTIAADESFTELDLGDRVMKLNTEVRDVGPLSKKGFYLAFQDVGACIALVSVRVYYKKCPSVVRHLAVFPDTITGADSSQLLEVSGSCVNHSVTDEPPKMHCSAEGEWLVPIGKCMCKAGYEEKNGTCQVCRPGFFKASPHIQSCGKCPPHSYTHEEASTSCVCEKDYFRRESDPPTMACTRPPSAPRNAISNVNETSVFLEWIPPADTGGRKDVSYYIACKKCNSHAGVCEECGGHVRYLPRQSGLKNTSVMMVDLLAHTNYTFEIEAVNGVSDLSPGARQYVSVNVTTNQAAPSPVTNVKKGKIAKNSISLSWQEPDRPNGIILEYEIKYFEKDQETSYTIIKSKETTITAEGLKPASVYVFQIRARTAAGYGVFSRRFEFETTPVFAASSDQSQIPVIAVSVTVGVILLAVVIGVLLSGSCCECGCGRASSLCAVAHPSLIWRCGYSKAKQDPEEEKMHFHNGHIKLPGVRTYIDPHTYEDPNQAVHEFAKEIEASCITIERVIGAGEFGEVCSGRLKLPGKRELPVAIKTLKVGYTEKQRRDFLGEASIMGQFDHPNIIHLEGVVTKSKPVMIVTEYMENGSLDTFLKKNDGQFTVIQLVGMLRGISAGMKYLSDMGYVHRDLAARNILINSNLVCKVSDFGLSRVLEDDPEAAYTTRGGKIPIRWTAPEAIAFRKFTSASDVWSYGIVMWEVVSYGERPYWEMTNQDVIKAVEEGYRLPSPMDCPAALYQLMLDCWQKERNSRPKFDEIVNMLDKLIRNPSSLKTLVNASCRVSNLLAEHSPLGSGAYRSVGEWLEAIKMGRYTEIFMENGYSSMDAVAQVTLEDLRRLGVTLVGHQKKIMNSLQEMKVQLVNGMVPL

As to `Cc1nc2cc(-c3nn(C(C)C)c4ncnc(N)c34)ccc2o1`, the Kd (in test [1]; on Ephrin type-A receptor 5; in test [2]; in test [3]; in test [4]; in test [5]) was > 30 µM (inactive) in each case. In test [6], the Kd was > 30 µM (inactive).
Take `Cc1nc(NC(=O)N2CCC[C@H]2C(N)=O)sc1-c1ccnc(C(C)(C)C(F)(F)F)c1` [ALPELISIB]: the Kd (in test [1]; at Ephrin type-A receptor 5; in test [2]; in test [3]; in test [4]; in test [5]) was > 30 µM (inactive) each time. In addition, in test [6], the Kd is > 30 µM (inactive).
Take `Cc1csc(-c2nnc(Nc3ccc(Oc4ncccc4-c4ccnc(N)n4)cc3)c3ccccc23)c1` [AMG-900]: the Kd was > 30 µM (inactive) in test [1]; > 30 µM (inactive) at Ephrin type-A receptor 5; 2.46 µM (active) in test [2]; > 30 µM (inactive) in test [3]; > 30 µM (inactive) in test [4]; > 30 µM (inactive) in test [5]. For the same molecule, the Kd in test [6] was 1.97 µM (active).
For the molecule `C=CC(=O)Nc1cc2c(Nc3ccc(F)c(Cl)c3)ncnc2cc1C#CC(C)(C)N1CCN(C)CC1` [AV-412 FREE BASE], the Kd (in test [1]; at Ephrin type-A receptor 5; in test [2]; in test [3]; in test [4]; in test [5]) was > 30 µM (inactive) in each case. Further, the Kd in test [6] was > 30 µM (inactive).
For the molecule `Cc1cc(C(=O)NOCCO)c(Nc2ccc(I)cc2F)n(C)c1=O` [AZD-8330], the Kd (in test [1]; on Ephrin type-A receptor 5; in test [2]; in test [3]; in test [4]; in test [5]) was > 30 µM (inactive) in each case. In addition, in test [6], the Kd is > 30 µM (inactive).
For the molecule `Cn1cnc2c(F)c(Nc3ccc(Br)cc3F)c(C(=O)NOCCO)cc21` [BINIMETINIB], the Kd (in test [1]; at Ephrin type-A receptor 5; in test [2]; in test [3]; in test [4]; in test [5]) was > 30 µM (inactive) throughout. Further, the Kd in test [6] is > 30 µM (inactive).
For `CCn1c(C(=O)N(C2CC2)C2CC2)cc2c3c(ncn3C)c(Nc3cc(C)n(C)n3)nc21` [BMS-911543], the Kd (in test [1]; at Ephrin type-A receptor 5; in test [2]; in test [3]; in test [4]; in test [5]) was > 30 µM (inactive) each time. For the same molecule, in test [6], the Kd was > 30 µM (inactive).
As for `COc1cc2ncnc(Oc3cccc(NC(=O)Nc4cc(C(C)(C)C(F)(F)F)on4)c3)c2cc1OC` [CEP-32496], the Kd is > 30 µM (inactive) in test [1]; 0.401 µM on Ephrin type-A receptor 5; > 30 µM (inactive) in test [2]; > 30 µM (inactive) in test [3]; > 30 µM (inactive) in test [4]; > 30 µM (inactive) in test [5]. In test [6], the Kd is 0.041 µM (active).
Regarding `Cc1cc(Nc2ncc(Cl)c(Nc3ccccc3S(=O)(=O)C(C)C)n2)c(OC(C)C)cc1C1CCNCC1` [CERITINIB], the Kd was > 30 µM (inactive) in test [1]; > 30 µM (inactive) at Ephrin type-A receptor 5; 1.06 µM in test [2]; > 30 µM (inactive) in test [3]; > 30 µM (inactive) in test [4]; > 30 µM (inactive) in test [5]. The Kd in test [6] is > 30 µM (inactive).
As for `COc1c(OCCCN2CCOCC2)ccc2c1N=C(NC(=O)c1cnc(N)nc1)N1CCN=C21` [COPANLISIB], the Kd (in test [1]; at Ephrin type-A receptor 5; in test [2]; in test [3]; in test [4]; in test [5]) was > 30 µM (inactive) throughout. In addition, the Kd in test [6] is > 30 µM (inactive).
As for `COCC(=O)NC/C=C/c1ccc2ncnc(Nc3ccc(Oc4ccc(C)nc4)c(C)c3)c2c1` [CP-724714], the Kd (in test [1]; at Ephrin type-A receptor 5; in test [2]; in test [3]; in test [4]; in test [5]) was > 30 µM (inactive) in each case. The Kd in test [6] was > 30 µM (inactive).
On to `CCS(=O)(=O)N1CCN(c2ccc(Nc3ncc(C(N)=O)c(NC4CC4)n3)cc2)CC1` [Cerdulatinib Hydrochloride], for which the Kd (in test [1]; on Ephrin type-A receptor 5; in test [2]; in test [3]; in test [4]; in test [5]) was > 30 µM (inactive) each time. The Kd in test [6] was > 30 µM (inactive).
In the case of `Cc1cccc(-c2nn3c(c2-c2ccnc4ccc(C(N)=O)cc24)CCC3)n1` [GALUNISERTIB], the Kd (in test [1]; on Ephrin type-A receptor 5; in test [2]; in test [3]; in test [4]; in test [5]) was > 30 µM (inactive) in each case. Besides, in test [6], the Kd was > 30 µM (inactive).
